Measurements published in paper PMC9674958 (Proceedings of the National Academy of Sciences of the …, 2022).

Experiments:
[1] = test system: tyrosinase (TYR) of Q. spinosa; test: absorbance at […] nm, Lineweaver-Burk fit; assay type: biochemical, Quasipaa spinosa; conditions: 15 uM CuSO4, 50 mM Na2HPO4, pH 6.2; L-DOPA 0.625-10 mM
[2] = test system: tyrosinase (TYR) of N. parkeri; test: absorbance at […] nm, Lineweaver-Burk fit; assay type: biochemical, Nanorana parkeri; conditions: 15 uM CuSO4, 50 mM Na2HPO4, pH 6.2; L-DOPA 0.625-10 mM

Km [1]: 0.1663 ± 0.117 mM/L
Km [2]: 0.130 ± 0.073 mM/L
Structure (SMILES): N[C@@H](Cc1ccc(O)c(O)c1)C(=O)O [L-DOPA]
